Source: patent US11542476B2, “Advanced pulmonary models” (EMULATE, INC., priority 2017, dated 2023)
“Also recorded” adds a separate entry of the source.

Key:
[1] = system: P. aeruginosa; format: cell-based, Pseudomonas aeruginosa; details: lower concentrations
Experimental: Mature small airway chips at air-liquid interface (ALI) were gently washed with PBS to remove excess mucus. Cells were inoculated with 2-3×10^6 colony forming units (CFUs) in Hank's balanced salt solution (HBSS) for 2 hours. At the end of the incubation, the inoculum was removed and the cells were washed 3× with phosphate buffer saline (PBS) to remove any nonadherent bacteria. PBS was removed and cells were incubated at ALI up to 24 hours (h) under flow in the bottom channel but not in the top channel.
After an exemplary on-chip infection protocol, including removing nonadherent bacteria, a test compound was immediately added to the top (apical) and bottom (basal) channels then cells are cultured under flow using media containing the anti-microbial compound, for 24 hours. Exemplary test compound amounts are at least 0.1 μg/ml, up to 50 μg/ml, up to 100 μg/ml, up to 500 μg/ml. In one embodiment, an exemplary test compound is a drug Imipenem.
More specifically, in one embodiment of an Airway on-chip, duplicate chips were infected with PA 5919 WT or PA 5890 Mutant as described herein. Then, Imipenem was added to apical and basolateral fluids (cell media) for treatment with Imipenem at 50, 100 and 500 μg/ml for 24 hours with at least one chip without Imipenem. […] Lysates were serially diluted for CFU quantification. […]
Assay readouts: Viability of extracellular bacteria (apical sampling). […]

[2] = system: human neutrophil; experiment: Neutrophil recruitment/attachment in Airway-on-Chip model of acute asthma exacerbation (HRV-16 infection, IL-13 stimulation); format: cell-based
Experimental: In this embodiment, an exemplary respiratory virus, e.g., Rhinovirus, was added to the upper channel of the chip, IL-13 was used to stimulate cells, and neutrophils were added to the lower channel, see, FIG. 14A.
See, FIG. 14B and FIG. 14C.
HRV-16 is represented as small green dots in the upper channel while neutrophil cells (also described as polymorphonuclear leukocytes (PMN)) are represented as large purple spots in the lower channel. […] Treatments included HRV-16 alone infected cells, IL-13 alone treated cells, HRV-16 and (+) IL-13 treated cells, HRV-16+CXCR2in (inhibitor) treated cells, and HRV-16+IL-13+CXCR2in. […] FIG. 14C is a graphical comparison showing PMN (neutrophil) cells counts as % of untreated cells and cells treated with combinations shown for IL-13, HRV, and CXCR2 (in) treatments. Quantification of neutrophil recruitment (** p<0.01; **** p<0.001).

[3] = system: human neutrophil; experiment: Neutrophil adhesion, crawling and trans-migration out of the endothelial channel, HRV-16 infected Airway-on-Chip; format: cell-based; details: HRV-16 24 hpi
Excerpt: Once recruited to the endothelium, neutrophil movement can be recorded and extravasation monitored as N (number) of spots vs. time (e.g. up to 300-600 seconds).
Thus, migratory cell potential, as extravasation, is identified in graphs below each of these micrographs, FIG. 15A and FIG. 15B, showing the number of white spots (N spots) counted over time for each treatment. For HRV-16 infection alone, the number of spots decreases as the cells move into the cell layer, see, FIG. 15C. […] Extravasation in general refers to the movement of white blood cells into the tissues surrounding them (e.g. leukocyte extravasation), also known as diapedesis.

[4] = system: host cells of Airway On-Chip; experiment: TUNEL apoptosis staining on Airway On-Chip; format: cell-based, human; details: 3 μM for 3 h at 37° C.; positive control
Experimental: One embodiment of an Airway On-Chip was infected as described above for 2 hours and then treated 50 μg/ml tetracycline for 24 h (top and bottom channels under flow) for 24 h in order to limit bacterial replication (to avoid over-replication and cell lifting). Using this methodology, we performed longer infections on an airway chip and avoided cell death at 24 h. At 24 h, chips were fixed with 4% paraformaldehyde for 15 minutes and subsequently permeabilized with 0.25% triton in PBS. Apoptosis staining was performed following the Click-iT™ Plus TUNEL Assay for In Situ Apoptosis Detection, Alexa Fluor 647 assay: Click-iT™ Plus TUNEL Assay, Thermo Fisher Scientific Inc., 6 Nov. 2017.
The TUNEL assay is based on the incorporation of modified dUTPs by the enzyme terminal deoxynucleotidyl transferase (TdT) at the 3′-OH ends of fragmented DNA, a hallmark as well as the ultimate determinate of apoptosis. ClickiT™ Plus TUNEL assay with the Alexa Fluor™ 647 dye was utilized to detect the fragment DNA (purple), nuclei were labelled with DAPI.
Staurosporin, a prototypical ATP-competitive kinase inhibitor, was used as a positive control in this assay. […] As an additional positive control, chips were treated with 1 unit of DNAse I for 30 minutes at room temperature to induce TUNEL positive DNA strand breaks.

[5] = system: goblet cells; experiment: IL-13 induced goblet cell hyperplasia in Airway-on-Chip (MUC5AC staining); format: cell-based, human
Excerpt: As an exemplary immuno-modulatory compound, addition of IL-13 to an Airway-on-Chip induced changes in epithelial cell layers in the upper channel with an air interface and endothelial cells in the lower channel under media fluid flow conditions are shown. It was discovered that IL-13 added to this embodiment of Airway-on-Chip effects both the epithelial cell layer in the upper channel with an air interface and the endothelial cells in the lower channel under media flow conditions. FIG. 9A is a schematic illustration showing IL-13 in the context of an Airway-on-Chip, where IL-13 effects both epithelial cells in the upper channel with an air interface and endothelial cells in the lower channel under flow (left). […] IL-13 is added to the endothelial channel at an exemplary 100 ng/ml for an exemplary 7 days.
This hyperplasia effect can be inhibited by Tofacitinib, an inhibitor of the JAK/STAT pathway (Janus Kinase (JAK) and Signal Transducer and Activator of Transcription (STAT)).
Creation of a Th2 microenvironment through IL-13 stimulation induces an asthma-like phenotype in the Airway Chip. Exacerbation is then triggered by infecting with human rhinovirus 16. […]

[6] = system: endothelial cells; experiment: IL-13 effects on endothelial cells of Airway-on-Chip (adhesion molecule gene and protein expression); format: cell-based, human
Excerpt: Induced gene expression for adhesion molecules was also observed after IL-13 treatment, FIG. 9C. Examples of IL-13 induced Selectins (P and E) and ICAM-1 (Intercellular Adhesion Molecule 1) and VCAM-1 (vascular cell adhesion molecule-1). Doerr, “The condition-dependent proteome.” Nat Methods. 2016 Febuary; 13(2):117.
Other compounds tested included Interleukin alpha (IL1A), Interleukin beta (IL1B), Interleukin-6 (IL6), Interleukin-8 (IL8), The chemokine (C-C motif) ligand 2 (CCL2), C-C Motif Chemokine Receptor 4 (CCR4), Protein Tyrosine Phosphatase, Receptor Type C (PTPRC), Intercellular Adhesion Molecule 1 (ICAM1), Selectin P (SELP), Selectin E (SELE), Prostaglandin-Endoperoxide Synthase 2 (PTGS2), Transforming Growth Factor Beta 1 (TGFB1), SMAD Family Member 7 (SMAD7), Complement C3 (C3), Angiotensin I Converting Enzyme (ACE), cluster of differentiation 34: CD34 antigen: CD34 molecule (CD34) and Nuclear Factor Of Activated T-Cells 4 (NFATC4).
In one embodiment, an asthma phenotype was generated using IL-13 stimulation. This stimulation led to the activation of human endothelium at 48 hours of treatment. IL-13 induces vessel (endothelial cell) wall priming as part of recruitment of immune cells. […] IL-13 100 ng/mL (right panels) vs. no treatment controls (left panels) VE-Cadherin (red), ICAM-1 (green) in the upper panels. VCAM-1 (red) VE-Cadherin (green). […]

[7] = system: Human Airway Epithelium; experiment: Cilia beating frequency on-chip; format: cell-based; details: IL-13 stimulation
[8] = system: HRV-16; experiment: HRV-16 one step growth curves in infected Airway chips treated with IL-13 or not; format: cell-based, human rhinovirus 16; details: HRV-16 MOI=2
Experimental: An exemplary virus, Human rhinovirus 16 (HRV16: A16 or type 16, referring to a single stranded RNA virus), in capsid form, was added at a multiplicity of infection of 2 to the upper channel and incubated at 33° C. for 3 hours. Infected chips (n=3) were washed apically (upper channel) daily and replicating virus in the wash fluid was quantified. HRV16 Titer (Log 10 TCID 50/mL) vs time post infection (hours). TCID50 refers to a tissue culture infectious dose, which will infect 50% if the cells in a monolayer challenged with the viral inoculum.

[9] = system: IFN-λ1, IP-10/CXCL10, IL-6 secretion; experiment: Interferon, chemokine and cytokine secretion after HRV16 infection of Airway Chips; format: cell-based, human
Excerpt: HRV-16-induced interferons, chemokines and pro-inflammatory cytokines profile is altered by IL-13 treatment in the severe asthma chip as shown by high resolution, kinetic profiles of cytokine secretion. These graphs (FIG. 17A-C) show results using a method for identifying secretory phases (i.e. I, II, III, and IV) of essential inflammatory cytokines.
FIG. 17A-C HRV-16-induced interferons, chemokines and pro-inflammatory cytokines profile is altered by IL-13 treatment in one embodiment of a severe asthma on-chip. These exemplary graphs show results from high resolution, kinetic profiles of an IFN Lambda 1 response FIG. 17A; IP-10/CXCL10 FIG. 17B; IL-6 response FIG. 17C; following HRV16 infection. A severe asthma on-chip was stimulated with IL-13 (lower red line and squares) while a duplicate chip was not stimulated with IL-13 (upper blue line and circles). IL-13 treatment was over 72 hours post infection. Data represent mean±SEM of cells from three to four different donors, with one or two biological replicates (chips) per donor.
Charts show IFN-λ1 (pg/mL) and IP-10/CXCL10 (pg/mL) measured in apical and basal secretions collected at 24, 48 and 72 h post HRV16 infection comparing control, IL-13 alone, HRV-16 alone and combined treatments.
Thus, IL-13 may delay or prevent IL-6-driven resolution of HRV-induced inflammation. Charts (i.e. readouts) show IL-6 (pg/mL) and IL-8 (pg/mL) measured in apical and basal secretions collected at 24, 48 and 72 h post HRV16 infection comparing control, IL-13 alone, HRV-16 alone and combined treatments.

C[C@@H](O)[C@H]1C(=O)N2C(C(=O)O)=C(SCCN=CN)C[C@H]12 [Imipenem]
permeability of airway cells to imipenem [1]: impermeable

CC[C@@H](Nc1c(Nc2cccc(C(=O)N(C)C)c2O)c(=O)c1=O)c1ccc(C)o1 [MK-7123]
inhibition of relevant physiological responses (neutrophil recruitment) ([2]; CXCR2 antagonist 10 μM): greater than 90%
neutrophil attachment in the lower channel ([2]; HRV-16 infections, with or without IL-13 stimulation): reduced neutrophil attachment
neutrophil recruitment ([2]; MK-7123 10 microM, three stimulation conditions (HRV-16, IL-13, IL-13+HRV)): inhibits neutrophil recruitment; also recorded: significantly reduced neutrophil recruitment
neutrophil attachment in the lower channel ([2]; cells stimulated with IL-13 alone): increased attachment
adhesion of neutrophil cells on endothelial cell surfaces ([3]; 10 microliters of CXCR2 inhibitor added to the lower channel, vs no treatment): reduced adhesion of neutrophil cells
number of spots (neutrophil cells, N spots) counted over time (extravasation) ([3]; up to 600 seconds): remains about the same
neutrophil mobility (crawling) and trans-migration ([3]; severe asthma chip, 10 μM): reduces neutrophil mobility and limits trans-migration

CN[C@@H]1C[C@H]2O[C@@](C)([C@@H]1OC)n1c3ccccc3c3c4c(c5c6ccccc6n2c5c31)C(=O)NC4 [Staurosporin]
apoptotic cell numbers (TUNEL) [4]: increased apoptotic cell numbers

C[C@@H]1CCN(C(=O)CC#N)C[C@@H]1N(C)c1ncnc2[nH]ccc12 [Tofacitinib]
effect on IL-13 induced goblet cell hyperplasia ([5]; IL-13+Tofacitinib): inhibited

IL-13: TH2 cytokine used to stimulate an asthma-like phenotype on-chip
neutrophil recruitment ([2]; IL-13+HRV vs either alone): additive increase in neutrophil recruitment
neutrophil recruitment ([2]; IL-13-treated chips vs non-stimulated chips): increased neutrophil recruitment
goblet cell hyperplasia ([5]; IL-13 100 ng/ml, 7 days, endothelial channel): induced goblet cell hyperplasia
adhesion molecule (ICAM-1, VCAM-1, VE-Cadherin) protein expression, immunostaining ([6]; IL-13 100 ng/mL, 48 hours): increased adhesion molecule expression
adhesion protein gene expression in endothelial cells (fold over non-treated) ([6]; IL-13 treatment): up regulates adhesion proteins
cilia beating frequency [7]: reduces cilia beating frequency
HRV infectivity (HRV-16 growth) [8]: does not alter HRV infectivity
epithelial interferon response after HRV-16 infection ([9]; apical/basal secretions, 24-72 h post infection): impairs epithelial interferon response; also recorded: reduces HRV16-induced interferon response
kinetic profile of IFN Lambda 1, CXCL10 and IL-6 secretion ([9]; over 3 days (72 hours) post HRV16 infection): inhibits secretion of IFN Lambda 1, CXCL10 and IL-6
HRV16-induced IL-6 secretion ([9]; prior stimulation with IL-13, 24, 48, 72 h post infection): inhibited
